# Measured values reported in patent publication US8173600B2, “Caspase-2 inhibitors and their biological applications” (Chiesi Farmaceutici S.p.A., priority 2004, dated 2012).
# Like-named read-outs stand apart in the source and are kept apart here. Peptide text beside a SMILES is read from it. * marks the point of attachment. X1 = COC(=O)C[C@H](N*)C(=O)COc1c(F)cccc1F; Quinaldoyl = O=C(c1ccc2ccccc2n1)*
# How the values were obtained:
# primary cortical neurons = test system: primary cortical neurons
# Procedure: Primary cortical neurons were cultured from E14 SWISS mice embryos (Janvier). Mice were sacrificed by cervical dislocation and embryos were removed by caesarean. Cerebral cortices were extracted and tissues mechanically triturated 15 times in L15 medium (Gibco BRL) by using 1000 μl tips (Eppendorf), then debris were removed, and the cell suspension was centrifuged at 850 rpm for 10 min. […]
# 5.1.3 Apoptosis assays. Analysis was performed on previously stained adherent neurons by fluorescence microscopy (FM) (DM IRB inverted fluorescence microscope, Leica, Rueil-malmaison, France) equipped with a 100 W mercury short arc lamp and a X 40 N PLAN L objective or a water immersion X 100 N PLAN objective. Usually, quantitative studies were performed by both FM on approximately 200-600 cells/field by scoring 5-10 random-selected fields per experiment and flow cytometry (FC) for higher sample throughput. […] Activated caspase-2 was detected using specific FAM-conjugated peptides (called FLICA: CaspaTag™ fluorescein Caspase Activity Kits, Q-Biogen, Illkirch, France; ApoFluor™ Caspase Detection Kits, MP BioMedicals): FAM-VDVAD (SEQ ID NO:9)-fmk. Viability loss was assessed by 7-AAD (Sigma) incorporation.
# [1] = test system: 32 others related-proteases or enzymes involved in signal transduction and neuronal metabolism, nitric oxide pathway or prostanglandin metabolism; details: 1 μM, n=2
# [2] = after freeze/thawing of aqueous solution
# Text: Stability was followed throughout 7 days at RT or after freeze/thawing of aqueous solution comprising various 10-100% of excipients by using HPLC (Varian ProStar 410 equipped of Nucleosile C18 (8 μm, 3.9×150 mm) with detection at 214 nm).
# [3] = test system: neonatal ischemic brain injury
# caspase-2 = caspase-2 (Rattus norvegicus, UniProt P55215); details: 5 mg/kg i.p., sacrificed at 24 hrs, brain homogenates
# caspase-2, sequence (P55215 whole entry): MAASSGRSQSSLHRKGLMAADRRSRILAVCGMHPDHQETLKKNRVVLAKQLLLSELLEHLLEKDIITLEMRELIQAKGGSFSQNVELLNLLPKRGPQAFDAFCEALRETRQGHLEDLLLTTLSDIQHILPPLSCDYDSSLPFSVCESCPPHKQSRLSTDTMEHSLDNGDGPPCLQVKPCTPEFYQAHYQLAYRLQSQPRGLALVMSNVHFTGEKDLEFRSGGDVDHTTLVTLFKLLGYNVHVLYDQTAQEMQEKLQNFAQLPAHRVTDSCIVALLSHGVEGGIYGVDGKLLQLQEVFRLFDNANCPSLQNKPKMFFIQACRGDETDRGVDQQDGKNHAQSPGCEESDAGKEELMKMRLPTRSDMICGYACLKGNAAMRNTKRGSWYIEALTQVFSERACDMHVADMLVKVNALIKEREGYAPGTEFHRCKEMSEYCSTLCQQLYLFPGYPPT
# Procedure: Brain hemispheres were lysed in 10 mM Hepes, 5 mM MgCl2, 42 mM KCl, 1 mM DTT, 0.5% CHAPS supplemented by complete protease inhibitors cocktail (Roche, Meylan, France) by using a manual potter on ice. Homogenates were centrifuged at 10000 g/4° C. for 10 min before keeping surnageant. Protein concentration was determined using BCA test. Proteins (50 μg) were separated on 12.5% polyacrylamide gels and transferred to PVDF membranes (Amersham). […] The monoclonal anti-mouse caspase-2 antibody (52 kDa; 11B4, Alexis Biochemicals) was used at a 1:1000 dilution; actin (42 kDa; Sigma; antibody diluted 1:5000) is used as an equal loading control.
# Caspase-2 activity (100 μg protein brain sample) was assessed in 100 μl assay buffer (50 mM HEPES, pH 7.4, 100 mM NaCl, 0.1% CHAPS, 10 mM DTT, 1 mM EDTA, 10% glycerol). The cleavage of 50 μM VDVAD(SEQ ID NO:9)-AMC by recombinant caspase-2 was measured after 2 h at 37° C. on a fluorescence microplate reader by monitoring the fluorescence emission at 510 nm upon excitation at 405 nm.
# Animals were sacrified at 24 hrs. Brain homogenates were subjected to caspase-2 activity assay and western blot analysis. IL: ipsilateral injured hemisphere, CL: contralateral unlesionned hemisphere.
# [4] = test system: global cerebral ischemia (4VO); details: icv, 72 h post-ischemia
# Procedure: Global cerebral ischemia was induced by four-vessel occlusion (4VO) according a Pulsinelli's derived method (Pulsinelli et al., 1982; Pulsinelli and Buchman, 1988) in young-adult rats (males Wistar aged of 10-12 weeks, 320 g+/−10 g; Janvier). The first day, head of anesthetised rats was positionned in stereotaxic ear bars and tilted down at approximatively 30° to the horizontal. After a midline incision at the level of cervical spine, both vertebral arteries were exposed under microscope and then coagulated by electocautery needle through the alar foramina at the level of first cervical vertebra. Both common carotides were then exposed 24 h later and clamped for 20-30 min (rats fell in the coma when electrocautherisation of both vertebral arteries have been well performed). Carotid arteries were then declamped to allow blood flow reperfusion. […] Rats were let in their cage with waer et food ad libitum.
# Rats were sacrificed and brain fixed by trans-cardiac perfusion with paraformaldehyde. Frontal brain slices (25 μm) were strained by Cresyl-Violet or co-stained by Hoechst 33342 and Fluorojade B to assess cell death in the hippocampus and in the cortex. […] Fluoro JadeB (green fluorescence) intake is possible only in cells which have permeable plasma membrane, thus more caracteristic of dying cells. Hoechst 33342 (blue fluorescence) label nuclei all all cells and allows to appreciate nuclear morphology changes during cell death.
# Cells were counted at the level of canula, as well as 650 μm and 780 μm after the cannula (antero-posterior axis) in the left brain hemisphere. Cells are counted in three successives slices at such levels in the hippocampus (CA1, CA3, girus dentus) and cortex. […] Both Fluoro Jade B and Hoechst stained slices were observed under a Leica DMIRB inverted fluorescence microscope equiped with ×40 objective and LEICA IM1000/Qfluorobase software (BP 340-80 excitation filter combined with LP 425 emission filter for Hoechst; BP 480/40 excitation filter combined with BP 515-560 emission filter for Fluoro Jade B).
# non-ischemic rats = details: rat, in vivo
# Procedure: The selective loss of vulnerable cells and Qco-VDVAD-dfp(SEQ ID NO:1)'s effects (intracerebroventricular (ICV) administrated) have been evaluated at 72 h. Rats were sacrificed and brain fixed by trans-cardiac perfusion with paraformaldehyde. Frontal brain slices (25 μm) were strained by Cresyl-Violet or co-stained by Hoechst 33342 and Fluorojade B to assess cell death in the hippocampus and in the cortex. Cresyl-Violet is a pink-red dye that labels cytoplamic body Nissl (endoplasmic reticulum structures) and nuclei in living cells thus resulting in pale or absence of staining in dying cells. Fluoro JadeB (green fluorescence) intake is possible only in cells which have permeable plasma membrane, thus more caracteristic of dying cells. Hoechst 33342 (blue fluorescence) label nuclei all all cells and allows to appreciate nuclear morphology changes during cell death.
# Cells were counted at the level of canula, as well as 650 μm and 780 μm after the cannula (antero-posterior axis) in the left brain hemisphere. Cells are counted in three successives slices at such levels in the hippocampus (CA1, CA3, girus dentus) and cortex. Cresyl-Violet stained slices were observed under white light (Nikon Eclipse E 800M microscope equipped with ×40 et ×20 objectives and LEICA IM50 software). […]
# [5] = test system: global cerebral ischemia (4VO); details: 4VO ischemic treated rats versus untreated rats
# Procedure: Corporal temperature was measured during churgical procedure at day 1 (from anesthesia to stepl (vertebral electrocauterisation and cannula putting up) and step 2 (coratid isolation) of chirurgical procedure during. Corporal temperature was also measured 0, 10, 20 minutes after the beginning of ischemia, at day 2. Temperature was measured 24, 48, 72 H post-ischemia and before final anesthesia for perfusion at day 5. Behavioural studies (feeding, spontaneous activity and reactivity) were performed and evaluated by scoring.
# Feeding: observation of stomacal contains at day 5
# If refeeding=1; If no refeeding=0
# Vivacity=1; More or less vivacious=0.5; No or poor vivacity=0.
# Reactivity: animal are sensitive and reactive to noise and move to the origin of the noise.
# If curious=1; If relatively curious=0.5; If not very curious=0.
smiles,measurement,setting,value
"COC(=O)C[C@H](NC(=O)[C@H](C)NC(=O)[C@@H](NC(=O)[C@H](CC(=O)OC)NC(=O)[C@@H](NC(=O)c1ccc2ccccc2n1)C(C)C)C(C)C)C(=O)COc1c(F)cccc1F [Qco-VDVAD-dfp, 2-Quinolinylcarbonyl-L-Valinyl-L-Aspartyl (methyl ester)-L-Valinyl-L-Alanyl-L-Aspartyl (methyl ester) 2,6-difluorophenyl ester] (Quinaldoyl-VD(OMe)VA-X1)",caspase-2 activity in serum-deprived cortical neurons,primary cortical neurons; 24 h serum deprivation,prevents caspase-2 activity
same,cell permeance,primary cortical neurons; inferred from prevention of caspase-2 activity in cortical neuron cultures,cell-permeant
same,cross reactivity against 32 other related proteases or enzymes,[1],no cross reactivity
same,degradation after freeze/thawing (HPLC),[2],No degradation
same,"infarct volume (%), mean","[3]; 0.1 mg/kg i.p. 1 h after MCAO, 48 hrs, control 22.64±1.6%",9.95±2.8%
same,reduction in infarct volume,"[3]; 0.1 mg/kg i.p. single dose 1 h after MCAO / ischemic onset, 48 hrs, n=19",44%
same,infarct volume of the four animals with intermediate protection,"[3]; 5 mg/kg i.p. before ischemic onset, 4 of 12 animals",16.5±1.32%
same,"infarct volume, median of the eight animals with complete protection or very marked smaller infarct","[3]; 5 mg/kg i.p. before ischemic onset, 8 of 12 animals",0.5%
same,"infarct volume (% damage of ipsilateral hemisphere), mean","[3]; 5 mg/kg i.p. before ischemic onset, 48 hrs, control 22.1±1.4%",5.7±2.3%
same,"infarct volume, median","[3]; 5 mg/kg i.p. before ischemic onset, all 12 animals, control median=21",0.5
same,reduction in infarct volume,"[3]; 5 mg/kg i.p. single dose 5-15 min before ischemic onset, 48 hrs, n=12",74%
same,terminal transferase dUTP nick end labeling (TUNEL),[3]; ipsilateral cortex of treated animals,significantly decreased
same,caspase-2 activity in brain of ischemic rat pups,caspase-2,inhibited caspase-2 activity
same,caspase-2 processing in brain of ischemic rat pups (western blot),caspase-2,inhibited caspase-2 activity as well as caspase-2 processing
same,Cresyl-violet staining intensity in CA1,[4],partially restored
same,abnormal nuclei in CA1 (Hoechst),[4]; versus ischemic rats,less abnormal nuclei
same,cells incorporating Fluorojade B in CA1,[4]; ischemic rats 50-60%,10-20%
same,cell death in hippocampus or cortex of non-ischemic rats,non-ischemic rats,< 10%
same,topical toxicity,non-ischemic rats,not topically tokic
same,"general behaviour scoring (feeding, spontaneous activity, reactivity)",[5],better scoring
